Laboratory results taken from patent publication US5411740A (ALZA Corporation, priority 1994, dated 1995).
Like-named read-outs stand apart in the source and are kept apart here.

What was measured:
clinical [1] = details: human, in vivo, topical or ocular; for concentration at 24 h: after 24 hours; for concentration at 12 h: after 12 hours
Method: (§1) Addition time was approximately 45 minutes.
No in-line adhesive was present. […] There was a 3M acrylate in-line adhesive present.
The in vivo plasma levels of oxybutynin were measured for two body sites. A 10 cm^2 device was worn on the penis for 101/2 hours and two 10 cm^2 devices were worn on the inner thigh for 24 hours. A control sample was drawn before applying the systems.
The other subject achieved a plasma level of 0.7 ng/mL after 12 hours, and the plasma level was 0.8 ng/mL after 24 hours.

[2] = type: in vivo, human
Method: as §1

clinical [3] = type: in vivo, human; details: system worn for 24 hours
Method: Therapeutic blood levels from about 0.5 ng/ml to about 3.0 ng/ml can be obtained from administration rates in the range of 0.08 mg/hr to 0.5 mg/hr. […] Therapeutic blood levels can be achieved within approximately 1-5 hours, and peak blood concentrations are achieved at about 3 hours when the system is worn for 24 hours. […] The system application is easily adapted for shorter or longer duration treatments, but generally 24 hours is the nominal duration for treatment.

[4] = 25 mg/ml oxybutynin reservoir, 20 μm polybutadiene film, cited from earlier work
[5] = plasma oxybutynin concentration, two 10 cm^2 systems on inner thigh
[6] = plasma oxybutynin level, additional subject (the other), two 10 cm^2 systems on inner thigh

CCN(CC)CC#CCOC(=O)C(O)(c1ccccc1)C1CCCCC1 (stereo not shown) [oxybutynin, 4-diethylamino-2-butynylphenylcyclohexylglycolate]
concentration at 9 h (clinical [1]; plasma oxybutynin concentration, additional subject (one), two 10 cm^2 systems on inner thigh, after 9 hours): 2 ng/mL
concentration at 24 h (clinical [1]; plasma oxybutynin concentration, additional subject (one), two 10 cm^2 systems on inner thigh): 1.7 ng/mL
concentration at 12 h (clinical [1]; [5]): 0.9 ng/mL
concentration at 24 h (clinical [1]; [5]): 1.1 ng/mL
concentration at 4 h (clinical [1]; plasma oxybutynin level, 10 cm^2 device on the penis, within 4 hours): 2 ng/mL
concentration at 12 h (clinical [1]; [6]): 0.7 ng/mL
concentration at 24 h (clinical [1]; [6]): 0.8 ng/mL
Measured Drug Loss ([2]; subject 1, inner thigh): 5.8 mg/20 cm^2 /day
Measured Drug Loss ([2]; subject 2, inner thigh): 8.6 mg/20 cm^2 /day
Measured Drug Loss ([2]; subject 3, chest): 6.7 mg/20 cm^2 /day
Measured Drug Loss ([2]; subject 4, abdomen): 7.2 mg/20 cm^2 /day
Measured Drug Loss ([2]; subject 5, penis): 19.2 mg/20 cm^2 /day
Tmax (clinical [3]; human, in vivo, topical or ocular, read-out: time of peak blood concentrations): ~3 h
time to achieve therapeutic blood levels (clinical [3]): 1 to 5 h
in vitro release rate ([4]; 49 cm^2 area): ~10 μg/cm^2 /hr
in vitro release over 24 hours ([4]; over 24 hours through a 49 cm^2 area): approximately 12 mg
